Consider 23 compounds from ChEMBL document CHEMBL1909046, “DrugMatrix in vitro pharmacology data”.

Structures are written as SMILES. pIC50, pKi: −log10 of the molar value.

The target in one assay is Adenosine receptor A2a (Homo sapiens, UniProt P29274). Kind of assay: DRUGMATRIX: Adenosine A2A radioligand binding (ligand: […]). It counts as cell membranes, Membrane. The settings on record: hek293; Not Active = under 50% inhibition at 10 µM.
The target in assay [1] is Sodium-dependent noradrenaline transporter (Homo sapiens, UniProt P23975). Put plainly: DRUGMATRIX: Norepinephrine Transporter radioligand binding (ligand: [125I] RTI-55). The class given is cell membranes, MDCK, Membrane. To be noted: Not Active = under 50% inhibition at 10 µM; for pIC50: read-out: IC50; for pKi: read-out: Ki.
Assay [2] has as its target T1, Alpha-1A adrenergic receptor (Rattus norvegicus, UniProt P43140).
T1 sequence (P43140 whole entry): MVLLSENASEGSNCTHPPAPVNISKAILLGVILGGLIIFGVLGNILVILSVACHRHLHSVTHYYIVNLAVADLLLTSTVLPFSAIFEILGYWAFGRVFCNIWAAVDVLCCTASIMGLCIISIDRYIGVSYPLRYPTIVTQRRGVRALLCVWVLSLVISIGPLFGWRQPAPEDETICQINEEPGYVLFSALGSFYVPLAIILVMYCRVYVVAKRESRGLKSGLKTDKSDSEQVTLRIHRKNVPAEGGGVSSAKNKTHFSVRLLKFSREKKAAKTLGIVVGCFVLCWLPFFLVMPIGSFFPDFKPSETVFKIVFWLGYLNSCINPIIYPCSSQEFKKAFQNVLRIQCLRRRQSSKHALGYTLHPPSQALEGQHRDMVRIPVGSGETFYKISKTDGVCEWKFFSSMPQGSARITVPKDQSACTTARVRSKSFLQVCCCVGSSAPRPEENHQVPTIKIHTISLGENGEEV
Kind of assay: DRUGMATRIX: Alpha-1A adrenergic receptor radioligand binding (ligand: prazosin). To be noted: Not Active = under 50% inhibition at 10 µM. It counts as cell membranes, Wistar, Submaxillary gland, Membrane.

Assay [3] addresses T2, Muscarinic acetylcholine receptor M4 (Homo sapiens, UniProt P08173).
T2 sequence (P08173 whole entry): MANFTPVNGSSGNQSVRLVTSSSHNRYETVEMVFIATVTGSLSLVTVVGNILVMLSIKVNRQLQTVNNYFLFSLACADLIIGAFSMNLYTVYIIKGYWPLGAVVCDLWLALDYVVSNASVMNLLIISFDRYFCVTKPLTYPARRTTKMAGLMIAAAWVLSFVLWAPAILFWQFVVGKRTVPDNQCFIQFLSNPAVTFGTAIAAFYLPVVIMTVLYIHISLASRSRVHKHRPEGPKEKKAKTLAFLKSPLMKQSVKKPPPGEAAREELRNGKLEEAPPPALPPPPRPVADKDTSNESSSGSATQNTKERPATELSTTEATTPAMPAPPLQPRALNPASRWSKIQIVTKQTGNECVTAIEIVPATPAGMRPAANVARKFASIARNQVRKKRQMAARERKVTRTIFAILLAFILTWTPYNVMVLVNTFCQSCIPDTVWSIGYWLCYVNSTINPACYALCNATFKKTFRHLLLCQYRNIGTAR
The class given is cell membranes, CHO-K1, Membrane. To be noted: cho-k1.

Assay [4] in a line: DRUGMATRIX: Calcium Channel Type L, Dihydropyridine radioligand binding (ligand: [3H] Nitrendipine). It counts as cell membranes, Rattus norvegicus, Wistar, Cerebral cortex, Membrane. The settings on record: Not Active = under 50% inhibition at 10 µM.
The target in the next assay is Nitric oxide synthase 1 (Rattus norvegicus, UniProt P29476). The class given is tissue-based, Cerebellum. Note: in other assays of this panel Not Active means under 50% inhibition at 10 µM.
Sequence of Nitric oxide synthase 1 (P29476 whole entry): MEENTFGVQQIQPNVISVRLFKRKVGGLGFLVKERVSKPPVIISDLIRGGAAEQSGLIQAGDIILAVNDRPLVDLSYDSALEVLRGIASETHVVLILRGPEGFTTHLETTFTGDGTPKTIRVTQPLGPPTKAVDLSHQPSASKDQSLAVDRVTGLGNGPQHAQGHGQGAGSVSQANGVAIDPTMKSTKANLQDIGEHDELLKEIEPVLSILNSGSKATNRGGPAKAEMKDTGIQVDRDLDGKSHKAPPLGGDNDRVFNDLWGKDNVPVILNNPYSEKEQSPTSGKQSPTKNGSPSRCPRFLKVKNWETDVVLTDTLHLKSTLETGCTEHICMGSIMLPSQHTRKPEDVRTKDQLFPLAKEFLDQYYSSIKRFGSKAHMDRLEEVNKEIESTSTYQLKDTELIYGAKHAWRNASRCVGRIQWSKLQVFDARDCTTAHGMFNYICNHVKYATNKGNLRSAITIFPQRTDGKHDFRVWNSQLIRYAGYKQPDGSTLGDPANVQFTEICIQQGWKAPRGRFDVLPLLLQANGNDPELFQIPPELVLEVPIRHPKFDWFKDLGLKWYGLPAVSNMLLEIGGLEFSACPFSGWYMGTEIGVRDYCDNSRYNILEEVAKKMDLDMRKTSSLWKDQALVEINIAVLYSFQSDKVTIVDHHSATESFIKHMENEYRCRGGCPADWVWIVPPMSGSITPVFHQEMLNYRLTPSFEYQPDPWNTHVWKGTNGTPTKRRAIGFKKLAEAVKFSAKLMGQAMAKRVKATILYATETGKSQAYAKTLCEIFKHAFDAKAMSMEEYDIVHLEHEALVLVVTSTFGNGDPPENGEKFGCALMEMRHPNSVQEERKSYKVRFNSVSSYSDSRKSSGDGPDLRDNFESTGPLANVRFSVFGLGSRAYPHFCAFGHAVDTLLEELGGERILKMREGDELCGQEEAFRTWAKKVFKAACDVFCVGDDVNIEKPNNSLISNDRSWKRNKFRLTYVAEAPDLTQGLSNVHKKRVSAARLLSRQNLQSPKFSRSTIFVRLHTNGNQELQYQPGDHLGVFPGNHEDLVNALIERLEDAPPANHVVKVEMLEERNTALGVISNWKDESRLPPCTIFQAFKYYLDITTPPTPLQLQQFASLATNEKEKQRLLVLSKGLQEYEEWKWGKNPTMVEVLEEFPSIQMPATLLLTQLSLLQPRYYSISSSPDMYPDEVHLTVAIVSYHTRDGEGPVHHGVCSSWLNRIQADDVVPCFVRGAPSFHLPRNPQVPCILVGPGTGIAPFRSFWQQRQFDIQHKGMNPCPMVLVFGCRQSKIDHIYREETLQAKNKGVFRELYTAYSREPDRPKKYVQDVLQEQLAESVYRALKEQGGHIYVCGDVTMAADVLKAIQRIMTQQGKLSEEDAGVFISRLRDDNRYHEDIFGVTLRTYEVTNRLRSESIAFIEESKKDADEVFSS

Sequence of Sodium-dependent noradrenaline transporter (P23975 whole entry): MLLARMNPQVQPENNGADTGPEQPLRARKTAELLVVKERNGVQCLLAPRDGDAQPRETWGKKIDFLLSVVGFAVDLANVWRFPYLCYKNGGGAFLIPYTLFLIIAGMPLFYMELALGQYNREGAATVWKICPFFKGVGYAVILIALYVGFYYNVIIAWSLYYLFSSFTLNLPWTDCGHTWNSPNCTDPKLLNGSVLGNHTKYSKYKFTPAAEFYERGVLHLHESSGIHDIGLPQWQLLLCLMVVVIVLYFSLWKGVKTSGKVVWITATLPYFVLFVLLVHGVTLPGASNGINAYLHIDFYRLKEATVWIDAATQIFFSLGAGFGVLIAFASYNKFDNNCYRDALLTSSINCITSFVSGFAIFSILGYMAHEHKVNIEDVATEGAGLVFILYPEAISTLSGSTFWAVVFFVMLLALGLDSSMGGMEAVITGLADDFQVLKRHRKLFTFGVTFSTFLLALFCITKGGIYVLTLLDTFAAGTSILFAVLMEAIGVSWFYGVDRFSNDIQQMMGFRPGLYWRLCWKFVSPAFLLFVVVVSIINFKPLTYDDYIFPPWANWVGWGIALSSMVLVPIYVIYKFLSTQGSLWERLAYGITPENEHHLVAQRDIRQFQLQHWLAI
Sequence of Adenosine receptor A2a (P29274 whole entry): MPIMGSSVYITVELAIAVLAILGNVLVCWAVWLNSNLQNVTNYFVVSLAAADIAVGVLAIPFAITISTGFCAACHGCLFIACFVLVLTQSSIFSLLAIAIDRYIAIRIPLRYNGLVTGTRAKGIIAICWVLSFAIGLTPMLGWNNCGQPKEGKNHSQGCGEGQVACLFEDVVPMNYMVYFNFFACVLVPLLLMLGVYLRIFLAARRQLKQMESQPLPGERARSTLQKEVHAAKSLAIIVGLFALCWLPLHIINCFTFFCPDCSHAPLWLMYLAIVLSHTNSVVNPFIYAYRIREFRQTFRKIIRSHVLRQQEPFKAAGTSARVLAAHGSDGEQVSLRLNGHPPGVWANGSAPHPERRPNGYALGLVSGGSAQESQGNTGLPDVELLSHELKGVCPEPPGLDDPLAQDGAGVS

Consider `CC(C)CN(C[C@@H](O)[C@H](Cc1ccccc1)NC(=O)O[C@H]1CCOC1)S(=O)(=O)c1ccc(N)cc1`, for which the IC50 entry (at Adenosine receptor A2a; in assay [1] (mdck); in assay [2]; in assay [3]; in assay [4]; at Nitric oxide synthase 1) was “Not Active” throughout. In addition, the Ki result in assay [4] was “Not Active”.
By pIC50 is commonly meant the negative decadic logarithm of the IC50, by convention in mol/L. One may read the pKi as the negative decadic logarithm of the Ki, by convention in mol/L. With `c1ccc(Nc2ccc(Nc3ccccc3)cc2)cc1`, the IC50 entry (on Adenosine receptor A2a; in assay [2]; in assay [3]; in assay [4]; against Nitric oxide synthase 1) was “Not Active” in each case. In addition, the pIC50 in assay [1] is 6.10. The pKi in assay [1] is 6.11. Besides, the Ki entry in assay [4] is recorded as “Not Active”.
For the compound `COc1cc2c3cc1Oc1cc(ccc1O)C[C@@H]1c4c(cc(OC)c(O)c4Oc4ccc(cc4)C[C@@H]3N(C)CC2)CC[N+]1(C)C.[Cl-]`, the IC50 result (on Adenosine receptor A2a; in assay [1] (mdck); in assay [2]; in assay [3]; in assay [4]; at Nitric oxide synthase 1) was “Not Active” in each case. For the same compound, the Ki entry in assay [4] is “Not Active”.
Consider `NC(=O)N1c2ccccc2CCc2ccccc21`, for which the IC50 result (on Adenosine receptor A2a; in assay [1] (mdck); in assay [2]; in assay [3]; in assay [4]; against Nitric oxide synthase 1) was “Not Active” in each case. Besides, the Ki entry in assay [4] was “Not Active”.
Regarding `O=C1CC[C@@H](N2C(=O)c3ccccc3C2=O)C(=O)N1`, the IC50 result (at Adenosine receptor A2a; in assay [1] (mdck); in assay [2]; in assay [3]; in assay [4]; at Nitric oxide synthase 1) was “Not Active” each time. For the same compound, the Ki entry in assay [4] is “Not Active”.
On to `Cc1onc(O)c1CC(N)C(=O)O` (racemic) [(R,S)-AMPA], for which the IC50 result (at Adenosine receptor A2a; in assay [1] (mdck); in assay [2]; in assay [3]; in assay [4]; against Nitric oxide synthase 1) was “Not Active” throughout. Further, the Ki entry in assay [4] is “Not Active”.
As to `Cc1ccc2cc3c(ccc4ccccc43)c3c2c1CC3` [3-METHYLCHOLANTHRENE], the IC50 entry (at Adenosine receptor A2a; in assay [2]; in assay [3]; in assay [4]; at Nitric oxide synthase 1) was “Not Active” each time. Besides, in assay [1], the pIC50 was 4.53. The pKi in assay [1] is 4.53. The Ki entry in assay [4] is listed as “Not Active”.
On to `CC[C@@]1(O)C[C@H](O[C@H]2C[C@H](N(C)C)[C@H](O[C@H]3C[C@H](O)[C@H](O[C@H]4CCC(=O)[C@H](C)O4)[C@H](C)O3)[C@H](C)O2)c2c(cc3c(c2O)C(=O)c2c(O)cccc2C3=O)[C@H]1C(=O)OC` [ACLARUBICIN], for which the IC50 result (at Adenosine receptor A2a; in assay [1] (mdck); in assay [2]; in assay [3]; in assay [4]; on Nitric oxide synthase 1) was “Not Active” each time. The Ki entry in assay [4] is on record as “Not Active”.
Turning to `Nc1nc2c(ncn2COCCO)c(=O)[nH]1` [ACYCLOVIR], the IC50 result (at Adenosine receptor A2a; in assay [1] (mdck); in assay [2]; in assay [3]; in assay [4]; at Nitric oxide synthase 1) was “Not Active” throughout. Moreover, the Ki entry in assay [4] is recorded as “Not Active”.
As for `Cc1c(C)c2c(c(C)c1O)CC[C@@](C)(CCC[C@H](C)CCC[C@H](C)CCCC(C)C)O2` [ALPHA-TOCOPHEROL], the IC50 result (on Adenosine receptor A2a; in assay [1] (mdck); in assay [2]; in assay [3]; in assay [4]; against Nitric oxide synthase 1) was “Not Active” each time. For the same compound, in assay [4], the Ki entry is “Not Active”.
As to `CN(C)c1nc(N(C)C)nc(N(C)C)n1` [ALTRETAMINE], the IC50 result (at Adenosine receptor A2a; in assay [1] (mdck); in assay [2]; in assay [3]; in assay [4]; on Nitric oxide synthase 1) was “Not Active” each time. In addition, the Ki result in assay [4] is “Not Active”.
For `Nc1c(Br)cc(Br)cc1CN[C@H]1CC[C@H](O)CC1` [AMBROXOL], the IC50 result (on Adenosine receptor A2a; in assay [1] (mdck); in assay [2]; in assay [3]; in assay [4]; against Nitric oxide synthase 1) was “Not Active” in each case. The Ki result in assay [4] was “Not Active”.
On to `NCCCCCC(=O)O` [AMINOCAPROIC ACID], for which the IC50 entry (at Adenosine receptor A2a; in assay [1] (mdck); in assay [2]; in assay [3]; in assay [4]; on Nitric oxide synthase 1) was “Not Active” throughout. The Ki entry in assay [4] is “Not Active”.
Turning to `CCC1(c2ccc(N)cc2)CCC(=O)NC1=O` (configuration not stated) [AMINOGLUTETHIMIDE], the IC50 result (on Adenosine receptor A2a; in assay [1] (mdck); in assay [2]; in assay [3]; in assay [4]; against Nitric oxide synthase 1) was “Not Active” in each case. Moreover, the Ki result in assay [4] is reported as “Not Active”.
For `Cc1ccc(/N=C/N(C)/C=N/c2ccc(C)cc2C)c(C)c1` [AMITRAZ], the IC50 result (at Adenosine receptor A2a; in assay [1] (mdck); in assay [2]; in assay [3]; in assay [4]; on Nitric oxide synthase 1) was “Not Active” in each case. For the same compound, in assay [4], the Ki entry is “Not Active”.
`CCOC(=O)C1=C(COCCN)NC(C)=C(C(=O)OC)C1c1ccccc1Cl` (configuration not stated) [AMLODIPINE]: the IC50 result (at Adenosine receptor A2a; in assay [1] (mdck); in assay [2]; in assay [3]; against Nitric oxide synthase 1) was “Not Active” throughout. In addition, the pIC50 in assay [4] (read-out: IC50) is 7.51. Besides, the pKi in assay [4] (read-out: Ki) is 7.70.
Consider `COc1ccc(C[C@H]2NC[C@H](O)[C@H]2OC(C)=O)cc1` [ANISOMYCIN], for which the IC50 entry (at Adenosine receptor A2a; in assay [1] (mdck); in assay [2]; in assay [3]; in assay [4]; against Nitric oxide synthase 1) was “Not Active” throughout. For the same compound, the Ki entry (at Adenosine receptor A2a; in assay [1] (mdck); in assay [2]; in assay [3]; in assay [4]; on Nitric oxide synthase 1) was “Not Active” throughout.
For `Nc1ncn([C@@H]2O[C@H](CO)[C@@H](O)[C@H]2O)c(=O)n1` [AZACITIDINE], the IC50 result (on Adenosine receptor A2a; in assay [1] (mdck); in assay [2]; in assay [3]; in assay [4]; at Nitric oxide synthase 1) was “Not Active” in each case. Besides, the Ki entry in assay [4] was “Not Active”.
In the case of `CN(C)C(=O)Oc1cc(OC(=O)N(C)C)cc(C(O)CNC(C)(C)C)c1` (configuration not stated) [BAMBUTEROL], the IC50 result (at Adenosine receptor A2a; in assay [1] (mdck); in assay [2]; in assay [3]; in assay [4]; on Nitric oxide synthase 1) was “Not Active” in each case. Also, the Ki entry in assay [4] is “Not Active”.
For the compound `CN(C)CCCN1c2ccccc2Sc2ccc(Cl)cc21` [CHLORPROMAZINE], the IC50 result (at Adenosine receptor A2a; in assay [4]; at Nitric oxide synthase 1) was “Not Active” each time. The Ki result in assay [4] is on record as “Not Active”.
As to `Clc1cccc(Cl)c1NC1=NCCN1` [CLONIDINE], the IC50 entry (at Adenosine receptor A2a; in assay [1] (mdck); in assay [3]; in assay [4]; at Nitric oxide synthase 1) was “Not Active” in each case. The Ki entry in assay [4] is on record as “Not Active”.
In the case of `CNCCCN1c2ccccc2CCc2ccccc21` [DESIPRAMINE], the IC50 result (on Adenosine receptor A2a; in assay [2]; in assay [3]; in assay [4]; against Nitric oxide synthase 1) was “Not Active” each time. The Ki result in assay [4] is recorded as “Not Active”.
Consider `Cc1ccc(N(CC2=NCCN2)c2cccc(O)c2)cc1` [PHENTOLAMINE], for which the IC50 entry (at Adenosine receptor A2a; in assay [1] (mdck); in assay [3]; in assay [4]; at Nitric oxide synthase 1) was “Not Active” throughout. Besides, the Ki entry in assay [4] is listed as “Not Active”.
